The numbers were not newly measured in patent US20060009430A1, “Composition for the prevention and treatment of the detrimental effects of dihydrotestosterone” (priority 2004, published 2006), which cites them from elsewhere.

Molecules are shown by their SMILES.

Data set [1] concerns localized prostate cancer. The following applies: 15 mg twice per day orally, 3 weeks.
Data set [2] concerns prostate. The following applies: rats, in combination with finasteride.
For data set [3], the system named is cancer. The following applies: in vivo.
Data set [4] concerns prostate cancer. The following applies: 200 μg daily for 4.5 years.
Data set [5] relates to advanced prostate cancer. The following applies: men with most dietary selenium versus lowest intake.

Regarding `CC(C)=CCC/C(C)=C/C=C/C(C)=C/C=C/C(C)=C/C=C/C=C(C)/C=C/C=C(C)/C=C/C=C(\C)CCC=C(C)C` [lycopene], in data set [1] (biopsy), the metastasis entry is “reduced metastasis”; the regression and malignancy result is “signs of regression and reduced malignancy”; the tumor size result is “smaller tumors”. Also, the PSA entry in data set [1] (versus no intervention) is on record as “significant reduction”.
Take `O=c1c(O)c(-c2ccc(O)c(O)c2)oc2cc(O)cc(O)c12` [quercetin]: in data set [2], the prostate weight entry is on record as “reduce prostate weight”.
With `[Se]` [selenium], in data set [3], the “reduction of cancer mortality and morbidity” value is recorded as “approximately 50%”; the “risk of lung, prostate and colon cancer” value is on record as “reduced significantly”. In data set [4], the skin cancer result is “no changes”; the “total, colorectal and lung cancer” value is recorded as “significant benefits”. In data set [4] (6.5 years follow-up, 974 men), the “reduction in the incidence of prostate cancer (secondary endpoint)” value is recorded as 63%. The “number that developed prostate cancer” value in data set [4] (placebo group 35) was 13. In data set [5], the “fewer cases of advanced prostate cancer” value is recorded as 65%.
